Read-outs that look alike come from different tables or passages of the source. Where only a bound is given, the exact number is not on record here.

Assay [1] has as its target human DGKα (Homo sapiens (Human), UniProt P23743). Description: biochemical. The following applies: detergent/lipid micelle substrate; read-out: DGKα IC50. The procedure: (§1) The DGKα and DGKζ reactions were performed using either extruded liposome (DGKα and DGKζ LIPGLO assays) or detergent/lipid micelle substrate (DGKα and DGKζ assays). The reactions were carried out in 50 mM MOPS pH 7.5, 100 mM NaCl, 10 mM MgCl2, 1 μM CaCl2, and 1 mM DTT (assay buffer). The reactions using a detergent/lipid micelle substrate also contained 50 mM octyl B-D-glucopyranoside. […] The lipid substrate concentrations were […], 0.25 mM DAG, and 2.75 mM PC for the extruded liposome reactions.
(§2) The compound inhibition studies were carried out as follows: 50 nL droplets of each test compound (top concentration 10 mM with 11 point, 3-fold dilution series for each compound) solubilized in DMSO were transferred to wells of a white 1536 well plate (Corning 3725). A 5 mL enzyme/substrate solution at 2× final reaction concentration was prepared by combining 2.5 mL 4× enzyme solution (20 nM DGKα or DGKζ (prepared as described below) in assay buffer) and 2.5 mL of either 4× liposome or 4× detergent/lipid micelle solution (compositions described below) and incubated at room temperature for 10 minutes. Next, 1 μL 2× enzyme/substrate solution was added to wells containing the test compound and reactions were initiated with the addition of 1 μL 300 uM ATP. The reactions were allowed to proceed for 1 hr, after which 2 μL Glo Reagent (Promega V9101) was added and incubated for 40 minutes. Next, 4 μL Kinase Detection Reagent was added and incubated for 30 minutes. Luminescence was recorded using an EnVision microplate reader. […] The compounds were evaluated at 11 concentrations to determine IC50.
(§3) The detergent/lipid micelle was prepared by combining 15 g phosphatidylserine (Avanti 840035P) and 1 g diacylglycerol (800811O) and dissolving into 150 mL chloroform in a 2 L round bottom flask. Chloroform was removed under high vacuum by rotary evaporation. The resulting colorless, tacky oil was resuspended in 400 mL 50 mM MOPS pH 7.5, 100 mM NaCl, 20 mM NaF, 10 mM MgCl2, 1 μM CaCl2), 1 mM DTT, and 200 mM octyl glucoside by vigorous mixing. The lipid/detergent solution was split into 5 mL aliquots and stored at −80° C.
(§4) Human DGK-alpha-TVMV-His-pFBgate and human DCK-zeta-transcript variant-2-TVMV-His-pFBgate baculovirus samples were generated using the Bac-to-Bac baculovirus expression system (Invitrogen) according to the manufacturer's protocol. The DNA used for expression of DGK-alpha and DGK-zeta have SEQ ID NOs: 1 and 3, respectively. Baculovirus amplification was achieved using infected Sf9 cells at 1:1500 virus/cell ratios, and grown for 65 hours at 27° C. post-transfection.
(§5) The expression scale up for each protein was carried out in the Cellbag 50 L WAVE-Bioreactor System 20/50 from GE Healthcare Bioscience. 12 L of 2×10^6 cells/mL Sf9 cells (Expression System, Davis, Calif.) grown in ESF921 insect medium (Expression System) were infected with virus stock at 1:200 virus/cell ratios, and grown for 66-68 hours at 27° C. post-infection. The infected cell culture was harvested by centrifugation at 2000 rpm for 20 min 4° C. in a SORVALL® RC12BP centrifuge. The cell pellets were stored at −70° C. until purification.
(§6) Full length human DGKα and DGKζ, each expressed containing a TVMV-cleavable C-terminal Hexa-His tag sequence (SEQ ID NOs: 2 and 4, respectively) and produced as described above, were purified from Sf) baculovirus-infected insect cell paste. The cells were lysed using nitrogen cavitation method with a nitrogen bomb (Parr Instruments), and the lysates were clarified by centrifugation. […] The three steps column chromatography included nickel affinity resin capture (i.e. HisTrap FF crude, GE Healthcare), followed by size exclusion chromatography (i.e. HiLoad 26/600 Superdex 200 prep grade, GE Healthcare for DGK-alpha, and HiPrep 26/600 Sephacryl S 300_HR, GE Healthcare for DGK-zeta).

Assay [2] deals with human DGKζ (Homo sapiens (Human), UniProt Q13574). Description: DGKζ assay (detergent/lipid micelle substrate). The format is biochemical. The method, then: as §1, §2, §3, §4, §5, §6
Assay [3] deals with pre-activated CD4 T cells and Raji cells. The assay is described as follows: Raji CD4 T Cell IL2 Assay. The format is cell-based.
The mark [4] stands for this setting: detergent/lipid micelle substrate, read-out: DGKζ IC50.
Where [5] appears, read: DGKζ IC50, detergent/lipid micelle substrate.

Sequence of human DGKα (P23743 other isoform, or with tags, fused parts or gaps): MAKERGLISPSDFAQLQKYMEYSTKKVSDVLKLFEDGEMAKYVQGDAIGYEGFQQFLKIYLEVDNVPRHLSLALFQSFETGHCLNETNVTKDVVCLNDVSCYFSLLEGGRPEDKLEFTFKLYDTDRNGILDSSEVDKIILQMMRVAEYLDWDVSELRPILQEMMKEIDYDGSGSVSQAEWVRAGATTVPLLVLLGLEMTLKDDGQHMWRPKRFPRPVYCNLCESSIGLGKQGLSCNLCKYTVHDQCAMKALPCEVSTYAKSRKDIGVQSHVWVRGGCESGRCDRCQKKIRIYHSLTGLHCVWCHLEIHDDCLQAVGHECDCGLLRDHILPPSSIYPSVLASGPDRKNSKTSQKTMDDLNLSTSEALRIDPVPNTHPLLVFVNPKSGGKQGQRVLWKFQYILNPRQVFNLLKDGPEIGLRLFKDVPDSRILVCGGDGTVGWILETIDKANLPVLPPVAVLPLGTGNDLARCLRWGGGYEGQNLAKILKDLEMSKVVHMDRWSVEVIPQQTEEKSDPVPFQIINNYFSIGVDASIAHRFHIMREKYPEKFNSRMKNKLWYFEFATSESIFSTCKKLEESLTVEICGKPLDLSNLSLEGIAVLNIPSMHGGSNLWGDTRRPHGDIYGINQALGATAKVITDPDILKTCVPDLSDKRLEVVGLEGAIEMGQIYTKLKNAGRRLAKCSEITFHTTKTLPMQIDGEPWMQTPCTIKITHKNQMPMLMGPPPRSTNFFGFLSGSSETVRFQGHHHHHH
Sequence of human DGKζ (Q13574 other isoform, or with tags, fused parts or gaps): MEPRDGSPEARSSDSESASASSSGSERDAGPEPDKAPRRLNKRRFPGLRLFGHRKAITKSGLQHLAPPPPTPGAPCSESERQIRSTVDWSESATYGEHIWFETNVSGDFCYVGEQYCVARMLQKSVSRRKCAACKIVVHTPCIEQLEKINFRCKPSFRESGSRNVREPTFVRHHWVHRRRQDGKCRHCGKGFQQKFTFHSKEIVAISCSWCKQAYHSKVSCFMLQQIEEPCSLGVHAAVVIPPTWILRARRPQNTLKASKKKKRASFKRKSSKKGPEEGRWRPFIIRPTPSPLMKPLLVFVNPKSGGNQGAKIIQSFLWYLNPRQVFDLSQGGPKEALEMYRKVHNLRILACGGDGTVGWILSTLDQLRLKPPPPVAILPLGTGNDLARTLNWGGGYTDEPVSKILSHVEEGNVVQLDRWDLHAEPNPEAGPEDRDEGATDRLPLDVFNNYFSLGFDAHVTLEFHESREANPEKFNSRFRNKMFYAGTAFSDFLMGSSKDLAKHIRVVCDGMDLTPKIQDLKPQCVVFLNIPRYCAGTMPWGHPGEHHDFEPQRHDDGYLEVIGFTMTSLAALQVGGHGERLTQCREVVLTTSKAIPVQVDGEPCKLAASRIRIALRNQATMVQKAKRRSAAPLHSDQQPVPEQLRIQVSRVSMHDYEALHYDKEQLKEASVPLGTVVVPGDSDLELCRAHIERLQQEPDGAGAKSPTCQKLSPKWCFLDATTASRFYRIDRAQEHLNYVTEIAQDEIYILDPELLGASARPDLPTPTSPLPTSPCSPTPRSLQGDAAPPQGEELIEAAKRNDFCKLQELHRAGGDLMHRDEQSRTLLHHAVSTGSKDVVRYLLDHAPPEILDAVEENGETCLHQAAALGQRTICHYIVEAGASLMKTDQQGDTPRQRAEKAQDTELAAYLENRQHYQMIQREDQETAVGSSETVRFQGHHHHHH

Regarding `COc1cc(F)ccc1C(c1ccc(F)cc1)N1CCN(c2c([N+](=O)[O-])c(=O)n(C)c3ccc(Br)nc23)CC1` (single isomer, unassigned) [Example 57, 6-bromo-4-(4-((4-fluoro-2-methoxyphenyl)(4-fluorophenyl)methyl)piperazin-1-yl)-1-methyl-3-nitro-1,5-naphthyridin-2(1H)-one], the results for the IC50 in assay [1], in assay [2] (setting [4]) and in assay [3] were 1600 nM, 110000 nM and 140 nM, respectively.
The corresponding values for `COc1cc(F)ccc1C(c1ccc(F)cc1)N1CCN(c2c([N+](=O)[O-])c(=O)n(C)c3ccc(Br)nc23)CC1` (single isomer, unassigned) [Example 58, 6-bromo-4-(4-((4-fluoro-2-methoxyphenyl)(4-fluorophenyl)methyl)piperazin-1-yl)-1-methyl-3-nitro-1,5-naphthyridin-2(1H)-one] are 250 nM, 19000 nM and 28 nM.
For `COc1cccc(C)c1C(c1ccc(F)cc1)N1CCN(c2c([N+](=O)[O-])c(=O)n(C)c3ccc(Br)nc23)CC1` (single isomer, unassigned) [Example 60, 6-bromo-4-(4-((4-fluorophenyl)(2-methoxy-6-methylphenyl)methyl)piperazin-1-yl)-1-methyl-3-nitro-1,5-naphthyridin-2(1H)-one], the IC50 – broadly, the concentration needed to halve the response being measured – was 32000 nM in assay [1], more than 240000 nM in assay [2] (setting [4]) and 1600 nM in assay [3].
In the same order, the values of `COc1cccc(C)c1C(c1ccc(F)cc1)N1CCN(c2c([N+](=O)[O-])c(=O)n(C)c3ccc(Br)nc23)CC1` (single isomer, unassigned) [Example 61, 6-bromo-4-(4-((4-fluorophenyl)(2-methoxy-6-methylphenyl)methyl)piperazin-1-yl)-1-methyl-3-nitro-1,5-naphthyridin-2(1H)-one] are 4400 nM, 2200 nM and 56 nM.
`Cn1c(=O)c([N+](=O)[O-])c(N2CCN(C(c3ccc(F)cc3)c3cccc(F)c3O)CC2)c2nc(Br)ccc21` (single isomer, unassigned) [Example 75, 6-bromo-4-(4-((3-fluoro-2-hydroxyphenyl)(4-fluorophenyl)methyl)piperazin-1-yl)-1-methyl-3-nitro-1,5-naphthyridin-2(1H)-one]: the IC50 in assay [1] turned out to be 2600 nM; in assay [2] (setting [5]) it was 130000 nM; in assay [3] it was 140 nM.
The corresponding values for `Cn1c(=O)c([N+](=O)[O-])c(N2CCN(C(c3ccc(F)cc3)c3cccc(F)c3O)CC2)c2nc(Br)ccc21` (single isomer, unassigned) [Example 76, 6-bromo-4-(4-((3-fluoro-2-hydroxyphenyl)(4-fluorophenyl)methyl)piperazin-1-yl)-1-methyl-3-nitro-1,5-naphthyridin-2(1H)-one] are 5500 nM, 2500 nM and 67 nM.
Consider `Cn1c(=O)c([N+](=O)[O-])c(N2CCN(C(c3ccccc3)c3ccccc3O)CC2)c2nc(Br)ccc21` (single isomer, unassigned) [Example 79, 6-bromo-4-(4-((2-hydroxyphenyl)(phenyl)methyl)piperazin-1-yl)-1-methyl-3-nitro-1,5-naphthyridin-2(1H)-one], for which the IC50 in assay [1] is 81000 nM; in assay [2] (setting [4]) it was more than 81000 nM; in assay [3], 67 nM.
Consider `Cc1cccc(C(c2ccc(F)cc2)N2CCN(c3c([N+](=O)[O-])c(=O)n(C)c4ccc(Br)nc34)CC2)c1O` (single isomer, unassigned) [Example 85, 6-bromo-4-(4-((4-fluorophenyl)(2-hydroxy-3-methylphenyl)methyl)piperazin-1-yl)-1-methyl-3-nitro-1,5-naphthyridin-2(1H)-one], for which the IC50 was 7600 nM in assay [1]; 770 nM in assay [2] (setting [4]); 100 nM in assay [3] (Homo sapiens, Raji).
Regarding `Cc1cccc(OCc2cncc(C#N)c2)c1C(c1ccc(F)cc1)N1CCN(c2c([N+](=O)[O-])c(=O)n(C)c3ccc(Br)nc23)CC1` (single isomer, unassigned) [Example 89, 5-((2-((4-(6-bromo-1-methyl-3-nitro-2-oxo-1,2-dihydro-1,5-naphthyridin-4-yl)piperazin-1-yl)(4-fluorophenyl)methyl)-3-methylphenoxy)methyl)nicotinonitrile], the IC50 in assay [1] was 41000 nM; in assay [2] (setting [4]) it was more than 240000 nM; in assay [3], 2800 nM.
For `C=CCOc1cccc(C)c1C(c1ccc(F)cc1)N1CCN(c2c([N+](=O)[O-])c(=O)n(C)c3ccc(Br)nc23)CC1` (single isomer, unassigned) [Example 95, 4-(4-((2-(allyloxy)-6-methylphenyl)(4-fluorophenyl)methyl)piperazin-1-yl)-6-bromo-1-methyl-3-nitro-1,5-naphthyridin-2(1-H)-one], the IC50 in assay [1] is more than 240000 nM; in assay [2] (setting [4]), more than 240000 nM; in assay [3], 1100 nM.
Take `C=CCOc1cccc(C)c1C(c1ccc(F)cc1)N1CCN(c2c([N+](=O)[O-])c(=O)n(C)c3ccc(Br)nc23)CC1` (single isomer, unassigned) [Example 96, 4-(4-((2-(allyloxy)-6-methylphenyl)(4-fluorophenyl)methyl)piperazin-1-yl)-6-bromo-1-methyl-3-nitro-1,5-naphthyridin-2(1-H)-one]: the IC50 came to 87000 nM in assay [1], 53000 nM in assay [2] (setting [4]) and 360 nM in assay [3].
`Cn1c(=O)c([N+](=O)[O-])c(N2CCN(C(c3ccc(F)cc3)c3ccccc3O)CC2)c2nc(C#N)ccc21` (single isomer, unassigned) [Example 98, 8-(4-((4-fluorophenyl)(2-hydroxyphenyl)methyl)piperazin-1-yl)-5-methyl-7-nitro-6-oxo-5,6-dihydro-1,5-naphthyridine-2-carbonitrile]: the half-inhibitory concentration (IC50) in assay [1] amounted to 6700 nM; in assay [2] (setting [4]) it was 4400 nM; in assay [3] it was 130 nM.
On to `C#CCOc1ccccc1C(c1ccc(F)cc1)N1CCN(c2c([N+](=O)[O-])c(=O)n(C)c3ccc(C#N)nc23)CC1` (single isomer, unassigned) [Example 101, 8-(4-((4-fluorophenyl)(2-(prop-2-yn-1-yloxy)phenyl)methyl)piperazin-1-yl)-5-methyl-7-nitro-6-oxo-5,6-dihydro-1,5-naphthyridine-2-carbonitrile], for which the IC50 in assay [1] stood at 15000 nM; in assay [2] (setting [4]), 27000 nM; in assay [3] (Homo sapiens, Raji) it was 190 nM.
In the same order, the values of `C#CCn1c(=O)c(C#N)c(N2CCN(C(c3ccc(F)cc3)c3ccccc3O)CC2)c2nc(Br)ccc21` (single isomer, unassigned) [Example 106, 6-bromo-4-(4-((4-fluorophenyl)(2-hydroxyphenyl)methyl)piperazin-1-yl)-2-oxo-1-(prop-2-yn-1-yl)-1,2-dihydro-1,5-naphthyridine-3-carbonitrile] are 960 nM, 2000 nM and 2.4 nM.
Take `COCCn1c(=O)c(C#N)c(N2CCN(C(c3ccc(F)cc3)c3ccc(F)cc3OC)CC2)c2nc(Br)ccc21` (single isomer, unassigned) [Example 115, 6-bromo-4-(4-((4-fluoro-2-methoxyphenyl)(4-fluorophenyl)methyl)piperazin-1-yl)-1-(2-methoxyethyl)-2-oxo-1,2-dihydro-1,5-naphthyridine-3-carbonitrile]: the 50% inhibitory concentration (IC50) in assay [1] is 220000 nM; in assay [2] (setting [4]) it was more than 240000 nM; in assay [3], 3800 nM.

The record behind these values is patent US11866430B2, “Naphthyridinone compounds useful as T cell activators” (priority 2018, dated 2024).
